Results reported in article PMC4858918, “Improving the N-terminal diversity of sansanmycin through mutasynthesis” (Microbial Cell Factories, 2016).
Values after ≈ are worked out from the molar mass of the structure shown.

Columns and labels:
Assay in all cases: MIC, microplate Alamar blue assay (MABA)
Assay type in all cases: cell-based
[1] = tested on: M. tuberculosis FJ05189 (MDR clinical isolate); details: Mycobacterium tuberculosis, read-out: MIC M. tuberculosis FJ05189
[2] = tested on: M. tuberculosis FJ05120 (MDR clinical isolate); details: Mycobacterium tuberculosis, read-out: MIC M. tuberculosis FJ05120
[3] = tested on: M. tuberculosis FJ05195 (XDR clinical isolate); details: Mycobacterium tuberculosis, read-out: MIC M. tuberculosis FJ05195

Row | Compound | MIC [1] [µg/mL] | MIC [2] [µg/mL] | MIC [3] [µg/mL]
1 | CC[C@@H](CO)NCCN[C@@H](CC)CO [Ethambutol] | 2 (≈ 9.79 µM) | 0.5 (≈ 2.45 µM) | > 128
2 | CO[C@H]1/C=C/O[C@@]2(C)Oc3c(C)c(O)c4c(O)c(c(/C=N/N5CCN(C)CC5)c(O)c4c3C2=O)NC(=O)/C(C)=C\C=C\[C@H](C)[C@H](O)[C@@H](C)[C@@H](O)[C@@H](C)[C@H](OC(C)=O)[C@@H]1C [Rifampicin] | 4 (≈ 4.86 µM) | > 128 | > 128
3 | NNC(=O)c1ccncc1 [Isoniazid] | 8 (≈ 58.3 µM) | 16 (≈ 117 µM) | > 128
4 | [H]/N=C(/N)N[C@H]1[C@H](O)[C@@H](O)[C@H](O[C@@H]2O[C@@H](C)[C@](O)(C=O)[C@H]2O[C@@H]2O[C@@H](CO)[C@H](O)[C@@H](O)[C@@H]2NC)[C@@H](N/C(N)=N\[H])[C@@H]1O [Streptomycin] | < 0.06 | < 0.06 | > 128
